Among the data in ChEMBL document CHEMBL1158277, “N -(Indol-3-ylethyl)-2-hydroxy-3-methylpentanamide, a Novel Indole Derivative from Xenorhabdus nematophilus” (J Nat Prod, 1996) are Activity values, retold here.

The experiment has as its system Bacillus subtilis. Description: Antibacterial activity against Bacillus subtilis at 100 ug/mL. The experiment is classed as functional, organism-based.

The structures appear in SMILES notation. The source made the active and inactive calls. The rule behind the calls is not given here.

Take `CC[C@H](C)[C@@H](O)C(=O)NCCc1c[nH]c2ccccc12`: the result was inactive.
